In experiment [1] the target is His6-CRBN/DDB1 (Homo sapiens, UniProt Q96SW2). The experiment is described as follows: TR-FRET ligand displacement assay. The following applies: for fold difference in KD between POM and POM-cN: monofunctional compounds, POM binds more tightly. It is filed as binding. Background: In TR-FRET formats the signal depends on donor and acceptor labels being close together.

Experiment [2] deals with BRD4 BD2 bromodomain. Conditions: read-out: KD for BD2; cited from earlier work.
Experiment [3] concerns the target BRD4 BD1 bromodomain. The following applies: read-out: KD for BD1; cited from earlier work.
Experiment [4] has as its target BRD4 in HEK293T cells (Homo sapiens, UniProt O60885). The experiment is described as follows: BRD4 degradation assay, western blot. It counts as cell-based. The following applies: 4 h, 100 nM–10 μM dose-response.
Experiment [5] deals with GSPT1-GFP in HEK293T cells (Homo sapiens, UniProt P15170). The experiment is described as follows: Off-target degradation of GSPT1 by flow cytometry. It counts as cell-based. The following applies: 24 h. For orientation: Flow cytometry measures light scatter and fluorescence of single cells or particles in a stream.
In experiment [6] the test system is zinc-finger (ZF) degrons fused to GFP in U2OS cells. The experiment is described as follows: Off-target degradation of ZF degrons by flow cytometry. It is filed as cell-based. Conditions: 32 nM to 20 μM, 24 h.
Experiment [7] deals with His6-CRBN/DDB1 in the presence of GST-BRD4(BD2). The experiment is described as follows: TR-FRET ternary complex / cooperativity assay with 1 μM BD2. It is filed as binding. Conditions: Alpha = KD,CRBN[binary]/KD,CRBN[ternary].
Experiment [8] has as its system His6-CRBN/DDB1 in the presence of GST-BRD4(BD1). The experiment is described as follows: TR-FRET ternary complex / cooperativity assay with 1 μM BD1. It is filed as binding. Conditions: Alpha = KD,CRBN[binary]/KD,CRBN[ternary].
The target of experiment [9] is His6-CRBN/DDB1–GST-BRD4(BD1) ternary complex (Homo sapiens, UniProt O60885+Q96SW2). The experiment is described as follows: TR-FRET off-rate measurement of the ternary complex, BD1. It is filed as binding. Conditions: BRD4 dissociation triggered by excess JQ1.
For experiment [10], the target named is BRD4(BD1)-GFP in HEK293T cells (Homo sapiens, UniProt O60885+Q96SW2). The experiment is described as follows: TR-FRET quantification of BRD4. Conditions: for DC50: read-out: DC50(BD1), HEK293T BRD4(BD1)-GFP reporter cells.
Experiment [11] concerns the target BRD4(BD2)-GFP in HEK293T cells (Homo sapiens, UniProt O60885+Q96SW2). The experiment is described as follows: TR-FRET quantification of BRD4. The following applies: for DC50: read-out: DC50(BD2), HEK293T BRD4(BD2)-GFP reporter cells, 4 h.
For experiment [12], the target named is endogenous BRD4 in MDA-MB-231 cells (Homo sapiens, UniProt O60885). It counts as cell-based. The following applies: 5 h (Fig. 3b).

As for `Nc1cccc2c1C(=O)N(C1CCC(=O)NC1=O)C2=O` (stereo not drawn) [POM, pomalidomide], the “fold difference in KD between POM and POM-cN” value in [1] is ~ 500 fold.
Take `Cc1sc2c(c1C)C(c1ccc(Cl)cc1)=N[C@@H](CC(=O)OC(C)(C)C)c1nnc(C)n1-2` [JQ1]: the Kd is 90 nM in experiment [2] and 50 nM in experiment [3].
For the molecule `Cc1sc2c(c1C)C(c1ccc(Cl)cc1)=N[C@@H](CC(=O)NCCCCCCCCC(=O)N[C@@H](Cc1ccccc1)C(=O)N[C@H]1CC(=O)NC1=O)c1nnc(C)n1-2` [JQ1-FcN], the “BRD4 degradation, western blot, in words” value in experiment [4] was “efficient degradation of BRD4 at a concentration of 100 nM”. For the same molecule, in experiment [1] (read-out: KD against His6-CRBN/DDB1 (binary), competition binding with Thal-FITC), the Kd is under 100 nM.
Take `Cc1sc2c(c1C)C(c1ccc(Cl)cc1)=N[C@@H](CC(=O)Nc1ccc(OCCOCCOCCOCCNc3cccc4c3C(=O)N(C3CCC(=O)NC3=O)C4=O)cc1)c1nnc(C)n1-2` (stereo partly drawn) [ARV-825]: in experiment [5], the “Dmax, off-target degradation of GSPT1” value is at most 1%. Moreover, the “degradation of C2H2 zinc finger targets including IKZF3 and ZFP91, in words” value in [6] was “fast and rapid degradation”.
As to `Nc1cccc2c1C(=O)N(C1CC(=O)NC1=O)C2=O` (stereo not drawn) [POM-cN], in [1], the “fold difference in KD between POM and POM-cN” value is ~ 500 fold.
Consider `Cc1sc2c(c1C)C(c1ccc(Cl)cc1)=N[C@@H](CC(=O)NCCCCCCCCNC(=O)COc1cccc3c1C(=O)N(C1CCC(=O)NC1=O)C3=O)c1nnc(C)n1-2` (stereo partly drawn) [dBET6], for which the “Dmax, off-target degradation of GSPT1” value in experiment [5] was at most 9%. Besides, the “cooperativity with BRD4(BD2), in words” value in experiment [7] is given as “negative cooperativity”. Besides, the “Dmax, off-target degradation of ZF degrons” value in experiment [6] was “≈ 6%”. In addition, in experiment [8], the “cooperativity with BRD4(BD1), in words” value was “negative cooperativity”.
As to `Cc1sc2c(c1C)C(c1ccc(Cl)cc1)=N[C@@H](CC(=O)NCCCCCCCCC(=O)N[C@@H](Cc1ccc(O)cc1)C(=O)N[C@H]1CCC(=O)NC1=O)c1nnc(C)n1-2` [JQ1-YcQ], in [9], the “stability of the ternary complex with BRD4(BD1), in words” value is “most stable and long-lived complexes”. Moreover, the “time to reach maximum level of degradation (Dmax), BRD4(BD1)” value in [10] (HEK293T BRD4(BD1)-GFP cells) was determined as 1.5 h. For the same molecule, the “fold difference in DC50 between BD1 and BD2” value in [10] (HEK293T reporter cells, 4 h, more potent on BD1) is reported as 5–10 fold. The values for the DC50 in experiment [10] (4 h) and in [11] were 103 nM and 513 nM, respectively. Also, the “time to reach maximum level of degradation (Dmax), BRD4(BD2)” value in [11] (HEK293T BRD4(BD2)-GFP cells) was determined as 3 h.
In the case of `Cc1sc2c(c1C)C(c1ccc(Cl)cc1)=N[C@@H](CC(=O)NCCCCCCCCC(=O)N[C@@H](C)C(=O)N[C@H]1CCC(=O)NC1=O)c1nnc(C)n1-2` [JQ1-AcQ], the “endogenous BRD4 degradation potency, in words” value in [12] is on record as “one of the most potent BRD4 degraders”. Further, the DC50 in experiment [10] (4 h) is 41 nM; in experiment [11], 78 nM.

The values above are taken from publication PMC12136240 (Cell chemical biology, 2024).
